Measurements: patent US10517862B2, “Fused heterocyclic compound derivative and application thereof” (NHWA PHARMA. CORPORATION, priority 2015, dated 2019)

Columns and labels:
[1] = biological target: T1, 5HT2C receptor (Rattus norvegicus, UniProt P08909); assay: 5HT2C receptor binding assay ([3H]-mesulergine, rat striatum membrane); conditions: for inhibition at 10 µM: test compound final concentration 10^−5 M, [3H]-mesulergine, rat striatum membrane, read-out: 5HT2C Inhibition rate (%); for affinity with 5HT2C (in words): summary of in vitro assay
T1 construct: from tissue; host or cells: rat brain striatum
T1 sequence (P08909 33-460): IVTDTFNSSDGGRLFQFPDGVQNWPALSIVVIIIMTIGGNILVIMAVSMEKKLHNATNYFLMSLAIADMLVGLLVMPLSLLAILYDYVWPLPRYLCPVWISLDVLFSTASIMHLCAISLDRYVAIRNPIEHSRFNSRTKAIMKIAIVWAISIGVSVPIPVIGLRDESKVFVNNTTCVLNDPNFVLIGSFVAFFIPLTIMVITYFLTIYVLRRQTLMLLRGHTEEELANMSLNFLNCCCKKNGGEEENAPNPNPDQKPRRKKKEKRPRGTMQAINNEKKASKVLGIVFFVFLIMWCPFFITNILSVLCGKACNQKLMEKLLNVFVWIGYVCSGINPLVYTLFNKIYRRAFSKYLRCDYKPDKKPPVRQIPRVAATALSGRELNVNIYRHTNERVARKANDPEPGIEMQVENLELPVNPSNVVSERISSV
Protocol: Preparation of 5HT2C Membrane
Rats were decapitated on ice. […] Centrifugation was conducted.
(§1) Materials for the Receptor Binding Assay

[2] = test system: D2 receptor; assay: D2 receptor binding assay (3H-Spiperone, rat striatum membrane); conditions: for D2 Inhibition rate (%): test compound final concentration 10^−5 M, 3H-Spiperone, rat striatum membrane; for affinity with D2 (in words): summary of in vitro assay
Protocol: Preparation of D2 Membrane
Rats were decapitated on ice. […] The weight of the homogenized tubes were adjusted using a balance, and centrifugation was conducted. […] Centrifugation was conducted.
as §1

[3] = test system: α1 norepinephrine receptor; assay: α1 norepinephrine receptor binding assay (3H-prazosin, rat cortex membrane); conditions: for α1 Inhibition rate (%): test compound final concentration 10^−5 M, 3H-prazosin, rat cortex membrane; for affinity with α1 (in words): summary of in vitro assay
From the text: Preparation of Receptor Membrane of Norepinephrine
α1 Norepinephrine Receptor Binding Assay

[4] = biological target: T2, 5HT1A receptor (Rattus norvegicus, UniProt P19327); assay: 5HT1A receptor binding assay (3H-8-OH-DPAT, rat striatum membrane); conditions: for inhibition at 10 µM: test compound final concentration 10^−5 M, 3H-8-OH-DPAT, rat striatum membrane, read-out: 5HT1A Inhibition rate (%); for affinity with 5HT1A (in words): summary of in vitro assay
T2 construct: Rats were decapitated on ice; from tissue; host or cells: rat brain striatum
T2 sequence (P19327 1-422): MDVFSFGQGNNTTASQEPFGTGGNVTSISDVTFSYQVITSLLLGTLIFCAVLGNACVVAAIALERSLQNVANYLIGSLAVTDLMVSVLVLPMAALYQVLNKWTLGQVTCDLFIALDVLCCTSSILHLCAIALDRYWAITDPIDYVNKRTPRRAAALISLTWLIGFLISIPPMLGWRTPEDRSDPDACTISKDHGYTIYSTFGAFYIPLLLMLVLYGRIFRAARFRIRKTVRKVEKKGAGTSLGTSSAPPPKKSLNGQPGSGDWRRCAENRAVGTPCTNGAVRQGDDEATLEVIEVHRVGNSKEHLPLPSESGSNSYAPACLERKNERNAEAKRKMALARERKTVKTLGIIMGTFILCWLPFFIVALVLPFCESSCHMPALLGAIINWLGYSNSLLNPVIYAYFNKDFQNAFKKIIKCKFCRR
Protocol: Preparation of 5HT1A Membrane
Rats were decapitated on ice. […] Incubation at 37° C. was conducted for 10 min. […] Centrifugation was conducted at 12000 rpm, 4° C. for 20 min. […] Centrifugation was conducted and repeated 3 times.
as §1

[5] = biological target: 5HT2A receptor (Rattus norvegicus, UniProt P14842); assay: 5HT2A receptor binding assay ([3H]-Ketanserin, rat striatum membrane); conditions: for inhibition at 10 µM: read-out: 5HT2A Inhibition rate (%); for affinity with 5HT2A (in words): summary of in vitro assay
5HT2A receptor, sequence (P14842 whole entry): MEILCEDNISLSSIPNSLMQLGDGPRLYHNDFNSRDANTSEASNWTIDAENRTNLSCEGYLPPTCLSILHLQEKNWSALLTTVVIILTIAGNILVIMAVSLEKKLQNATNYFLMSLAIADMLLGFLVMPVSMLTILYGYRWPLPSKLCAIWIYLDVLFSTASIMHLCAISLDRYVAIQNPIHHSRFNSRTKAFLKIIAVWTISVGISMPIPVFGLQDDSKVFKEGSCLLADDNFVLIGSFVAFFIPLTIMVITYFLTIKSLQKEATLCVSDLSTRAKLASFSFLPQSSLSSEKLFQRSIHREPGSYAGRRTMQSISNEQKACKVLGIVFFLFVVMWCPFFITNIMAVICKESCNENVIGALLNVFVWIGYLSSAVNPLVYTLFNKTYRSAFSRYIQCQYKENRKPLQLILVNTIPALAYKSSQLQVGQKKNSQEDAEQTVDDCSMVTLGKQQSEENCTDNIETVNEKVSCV

[6] = biological target: T3, D3 receptor (Homo sapiens, UniProt P35462); assay: D3 receptor assay ([3H]-Spiperone, HEK-293 cells); format: binding; conditions: for inhibition at 10 µM: test compound final concentration 10 μmol/L, [3H]-Spiperone, HEK-293 cells, read-out: D3 Inhibition rate (%); for affinity with D3 (in words): summary of in vitro assay
T3 construct: expressed in transfected cells; host or cells: HEK-293
T3 sequence (P35462 whole entry): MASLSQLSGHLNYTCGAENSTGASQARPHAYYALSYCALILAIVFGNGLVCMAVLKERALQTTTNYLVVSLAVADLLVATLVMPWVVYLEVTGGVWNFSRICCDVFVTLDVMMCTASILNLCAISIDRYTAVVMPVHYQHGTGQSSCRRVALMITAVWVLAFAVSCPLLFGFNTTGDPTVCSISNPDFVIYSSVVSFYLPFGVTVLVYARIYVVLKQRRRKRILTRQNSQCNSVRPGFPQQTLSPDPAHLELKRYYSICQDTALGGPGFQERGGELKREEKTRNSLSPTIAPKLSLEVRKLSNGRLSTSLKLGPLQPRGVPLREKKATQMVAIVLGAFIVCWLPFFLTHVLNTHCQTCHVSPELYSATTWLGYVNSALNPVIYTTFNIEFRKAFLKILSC
Protocol: Then the cells were centrifuged at 1000 rpm for 5 min, the supernatant was discarded, and the cell pellets was collected and stored in a −20° C. fridge for reservation. It was re-suspended with Tris-Cl (pH 7.4) when the assay was performed.
Tris was divided into aliquots by Genetimes Technology Inc.
Competitive binding test for receptors: 20 μl of each of the test compounds and 20 μl of the radioactive ligand together with 160 μl of the receptor proteins were added into the reaction tubes, and the final concentrations of the test compound and the positive drug were all 10 μmol/L. After 50 min of incubation in 30° C. water bath, the tubes were immediately moved to ice bath to terminate the reactions. GF/C glass fiber filter papers were used for rapid sucking filtration on a Millipore cell sample collector, 3 ml of elution buffer (50 mM Tris-HCl, PH 7.4) was applied for 3 times, and microwave was applied for 4-5 min for drying. The filter paper was moved into 0.5 ml centrifuge tube, and 500 μl of liposoluble scintillation cocktail was added. The tubes were allowed to stand still for over 30 min in dark, and the intensities of radioactivity were measured by a counter.

[7] = biological target: Histamine H1 receptor (Rattus norvegicus, UniProt P31390); assay: Histamine H1 receptor binding assay (3H-pyrilamine, rat cerebellum membrane); conditions: for inhibition at 10 µM: read-out: H1 Inhibition rate (%); for affinity with H1 (in words): summary of in vitro assay
Histamine H1 receptor, sequence (P31390 whole entry): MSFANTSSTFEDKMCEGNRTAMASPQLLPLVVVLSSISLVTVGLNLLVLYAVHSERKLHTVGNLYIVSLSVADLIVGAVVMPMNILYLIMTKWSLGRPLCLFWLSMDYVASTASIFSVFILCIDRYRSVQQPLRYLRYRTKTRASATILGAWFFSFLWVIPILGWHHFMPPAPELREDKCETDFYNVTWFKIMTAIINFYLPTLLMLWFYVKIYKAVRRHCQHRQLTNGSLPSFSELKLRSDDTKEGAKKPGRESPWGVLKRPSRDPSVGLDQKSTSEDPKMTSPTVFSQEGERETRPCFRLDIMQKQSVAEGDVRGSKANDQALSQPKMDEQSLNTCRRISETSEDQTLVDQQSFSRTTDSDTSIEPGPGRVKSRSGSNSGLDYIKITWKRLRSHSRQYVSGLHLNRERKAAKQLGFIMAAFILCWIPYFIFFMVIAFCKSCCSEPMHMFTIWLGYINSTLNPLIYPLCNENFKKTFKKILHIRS
Protocol: The supernatant was discarded to give pellets, and homogenate F was added again to the pellets for washing. Centrifugation was conducted and repeated 3 times.
(2) 100 μL of membrane preparation was added into each reaction tube.

Structure (SMILES) | inhibition at 10 µM [1] [%] | D2 Inhibition rate (%) [2] [%] | α1 Inhibition rate (%) [3] [%] | inhibition at 10 µM [4] [%] | inhibition at 10 µM [5] [%] | inhibition at 10 µM [6] [%] | inhibition at 10 µM [7] [%] | affinity with 5HT2C (in words) [1] | affinity with D2 (in words) [2] | affinity with α1 (in words) [3] | affinity with 5HT1A (in words) [4] | affinity with 5HT2A (in words) [5] | affinity with D3 (in words) [6] | affinity with H1 (in words) [7]
O=C(CN1CCC(c2noc3cc(F)ccc23)CC1)c1cc2c3c(c1)CCC(=O)N3CCC2 [Compound 1] | 84.6 | 45.89 | 68.75 | 54.6 | 84.9 | 60.9 | 84.9 | – | – | – | – | – | – | –
O=C1CCc2cc(C(O)CCN3CCC(c4noc5cc(F)ccc45)CC3)cc3c2N1CCC3 (centres unmarked) [Compound 3] | 61.6 | 97.67 | 51.42 | 91.6 | 92.5 | 93.9 | 42.5 | – | – | – | – | – | – | –
O=C1CCc2cc(CCCN3CCC(c4noc5cc(F)ccc45)CC3)cc3c2N1CCC3 [Compound 4] | 60 | 94.22 | 60.91 | 88 | 94 | 92.5 | 44 | – | – | – | – | – | – | –
O=C1CCc2cc(C(O)CCCN3CCC(c4noc5cc(F)ccc45)CC3)cc3c2N1CCC3 (centres unmarked) [Compound 6] | 61.6 | 98.48 | 60.91 | 99.6 | 99.1 | 98.5 | 49.1 | low affinities | high affinities | low affinities | high affinities | high affinities | high affinities | low affinities
O=C(CCCCN1CCC(c2noc3cc(F)ccc23)CC1)c1cc2c3c(c1)CCC(=O)N3CCC2 [Compound 8] | 59.5 | 90.17 | 41.19 | 89.5 | 93 | 72.4 | 45.5 | – | – | – | – | – | – | –
CC1CC(=O)N2CCCc3cc(C(=O)CCCN4CCC(c5noc6cc(F)ccc56)CC4)cc1c32 (centres unmarked) [Compound 9] | 54 | 91.76 | 66.62 | 84 | 90.2 | 86 | 46 | – | – | – | – | – | – | –
CC1CC(=O)N2CCCc3cc(CCCCN4CCC(c5noc6cc(F)ccc56)CC4)cc1c32 (centres unmarked) [Compound 10] | 55.9 | 85.88 | 46.48 | 82.9 | 83.5 | 80.2 | 43.9 | – | – | – | – | – | – | –
O=C(CN1CCC(c2noc3cc(F)ccc23)CC1)c1cc2c3c(c1)CCN3C(=O)CC2 [Compound 11] | 84.6 | 55.89 | 52.42 | 58.6 | 74.9 | 83.5 | 84.9 | – | – | – | – | – | – | –
O=C1CCc2cc(C(O)CCN3CCC(c4noc5cc(F)ccc45)CC3)cc3c2N1CC3 (centres unmarked) [Compound 13] | 53.6 | 96.83 | 53.75 | 93.6 | 96.9 | 94.4 | 46.9 | low affinities | high affinities | low affinities | high affinities | high affinities | high affinities | low affinities
O=C1CCc2cc(CCCN3CCC(c4noc5cc(F)ccc45)CC3)cc3c2N1CC3 [Compound 14] | 57 | 94.65 | 50.91 | 87 | 93.9 | 96.9 | 43.9 | low affinities | high affinities | low affinities | high affinities | high affinities | high affinities | low affinities
O=C1CCc2cc(C(O)CCCN3CCC(c4noc5cc(F)ccc45)CC3)cc3c2N1CC3 (centres unmarked) [Compound 16] | 55.4 | 98.34 | 51.19 | 99.4 | 98.8 | 98.3 | 38.8 | low affinities | high affinities | low affinities | high affinities | high affinities | high affinities | low affinities
O=C1CCc2cc(CCCCN3CCC(c4noc5cc(F)ccc45)CC3)cc3c2N1CC3 [Compound 17] | 51.1 | 99.17 | 46.62 | 99.1 | 99.4 | 96.2 | 35.4 | low affinities | high affinities | low affinities | high affinities | high affinities | high affinities | low affinities
O=C(CCCCN1CCC(c2noc3cc(F)ccc23)CC1)c1cc2c3c(c1)CCN3C(=O)CC2 [Compound 18] | 54.3 | 88.10 | 56.48 | 84.3 | 87.8 | 98.1 | 37.8 | – | – | – | – | – | – | –
O=C1CCc2cc(C(O)CCCCN3CCC(c4noc5cc(F)ccc45)CC3)cc3c2N1CC3 (centres unmarked) [Compound 19] | 57.1 | 81.45 | 52.47 | 87.1 | 81.1 | 91.5 | 41.1 | – | – | – | – | – | – | –
O=C1CCc2cc(CCCCCN3CCC(c4noc5cc(F)ccc45)CC3)cc3c2N1CC3 [Compound 20] | 53 | 83.23 | 68.86 | 83 | 80.3 | 93.2 | 49.3 | – | – | – | – | – | – | –
